These results are taken from US5621007A, “Method for regulation of transmembrane chloride conductance” (Bristol-Myers Squibb Company, priority 1995, dated 1997).

Entries after “also recorded” stand apart in the source; their conditions may differ. Like-named read-outs stand apart in the source and are kept apart here.

The target of assay [1] is T1, wild-type CFTR (Homo sapiens, UniProt P13569). The assay can be described thus: Whole-cell patch clamp, Vero cells expressing wild-type CFTR. Format: cell-based. (In patch-clamp work, channel activity is measured electrically.)
Assay [2] concerns mock transfected cells.
The subject of assay [3] is uninjected or H2 O-injected oocytes. The assay can be described thus: Two-electrode voltage clamp, uninjected or H2O-injected oocytes (control). Format: cell-based, Xenopus laevis. To be noted: NS004, uninjected or H2O-injected oocytes. The protocol: Oocytes were surgically removed from Xenopus laevis anesthetized with 0.12% 3-aminobenzoic acid ethyl ester (Tricaine). Oocytes were first rinsed with Ca^2+ -free OR2 medium (82.5 mM NaCl, 1 mM KCl, 1 mM MgCl2, 5 mM HEPES, pH 7.5 with NaOH) followed by incubation in collagenase (1.5 mg/ml prepared in Ca^2+ -free OR2 medium) for 4 hours at room temperature. After enzyme treatment, cells were rinsed 8× with OR2 medium and then rinsed again 8× with ND96 medium (90 mM NaCl, 1 mM KCl, 1 mM CaCl2, 1 mM MgCl2, 5 mM HEPES, pH 7.5 with NaOH). Oocytes were stored overnight at 17° C. Late stage V and early stage VI cells that were visualized to be fully defolliculated to the vitelline envelope were selected for microinjection.
Electrophysiological evaluation of the effects of putative CFTR openers were assessed in oocytes expressing wild-type and ΔF508 CFTR constructs using standard two-electrode voltage clamp techniques. Generally, a family of currents was generated under control conditions (incubated in Modified Barth's Solution, MBS, a typical physiological saline medium, in the absence of drugs), with no current or small currents generated under drug-free conditions. […] Data were collected and analyzed using a computer equipped with an A/D interface and appropriate acquisition and analysis software.
In general terms: Two-electrode voltage clamp holds a large cell at a set potential and records current.

For assay [4], the system named is Control cells (not expressing CFTR constructs). The assay can be described thus: Outside-out patch clamp, control Vero cells not expressing CFTR constructs. Format: cell-based, monkey. The method, then: Subsequently, various concentrations of NS004 were tested for direct effects on ^125 I efflux in cells expressing wild-type and ΔF508 CFTR constructs, the ability of NS004 to affect the anion efflux stimulated by cAMP (produced by application of Forskolin) was also tested. In addition, both whole-cell and single-channel (outside-out) patch clamp configurations were employed to directly determine the effects of cAMP (produced by addition of Forskolin), NS004, and the combination of cAMP and NS004 on whole-cell and single channel Cl^- currents in infected Vero cells under nominally sodium and potassium-free conditions. In all cases data were collected and analyzed by computer.

In assay [5] the target is T1, wild-type CFTR. Briefly: Two-electrode voltage clamp, Xenopus oocytes expressing wild-type CFTR. Format: cell-based.
Assay [6] concerns ΔF508 mutant CFTR Cl- channels. Format: cell-based.
Assay [7] addresses T1, wild-type CFTR. The assay can be described thus: 125I efflux from Vero cells expressing wild-type CFTR. Format: cell-based.
The subject of assay [8] is ΔF508 CFTR. The assay can be described thus: 125I efflux from Vero cells expressing ΔF508 CFTR. Format: cell-based.
In assay [9] the test system is ΔF508 CFTR. The assay can be described thus: Whole-cell patch clamp, Vero cells expressing ΔF508 CFTR. Format: cell-based.
Assay [10] has as its system wild-type CFTR Cl- channels. Briefly: Outside-out single channel patch clamp, Vero cells expressing wild-type CFTR. Format: cell-based. To be noted: sub-micromolar to micromolar NS004, outside-out excised patches.
For assay [11], the system named is ΔF508 CFTR. Briefly: Two-electrode voltage clamp, Xenopus oocytes expressing ΔF508 CFTR. Format: cell-based.
The subject of assay [12] is mock transfected cells. The assay can be described thus: Whole-cell patch clamp, mock transfected Vero cells. Format: cell-based, monkey.
The subject of assay [13] is chloride channels. Conditions: cited from earlier work.
[14] abbreviates: NS004 alone at the flux-experiment concentrations, Vero cells.

T1 sequence (P13569 whole entry): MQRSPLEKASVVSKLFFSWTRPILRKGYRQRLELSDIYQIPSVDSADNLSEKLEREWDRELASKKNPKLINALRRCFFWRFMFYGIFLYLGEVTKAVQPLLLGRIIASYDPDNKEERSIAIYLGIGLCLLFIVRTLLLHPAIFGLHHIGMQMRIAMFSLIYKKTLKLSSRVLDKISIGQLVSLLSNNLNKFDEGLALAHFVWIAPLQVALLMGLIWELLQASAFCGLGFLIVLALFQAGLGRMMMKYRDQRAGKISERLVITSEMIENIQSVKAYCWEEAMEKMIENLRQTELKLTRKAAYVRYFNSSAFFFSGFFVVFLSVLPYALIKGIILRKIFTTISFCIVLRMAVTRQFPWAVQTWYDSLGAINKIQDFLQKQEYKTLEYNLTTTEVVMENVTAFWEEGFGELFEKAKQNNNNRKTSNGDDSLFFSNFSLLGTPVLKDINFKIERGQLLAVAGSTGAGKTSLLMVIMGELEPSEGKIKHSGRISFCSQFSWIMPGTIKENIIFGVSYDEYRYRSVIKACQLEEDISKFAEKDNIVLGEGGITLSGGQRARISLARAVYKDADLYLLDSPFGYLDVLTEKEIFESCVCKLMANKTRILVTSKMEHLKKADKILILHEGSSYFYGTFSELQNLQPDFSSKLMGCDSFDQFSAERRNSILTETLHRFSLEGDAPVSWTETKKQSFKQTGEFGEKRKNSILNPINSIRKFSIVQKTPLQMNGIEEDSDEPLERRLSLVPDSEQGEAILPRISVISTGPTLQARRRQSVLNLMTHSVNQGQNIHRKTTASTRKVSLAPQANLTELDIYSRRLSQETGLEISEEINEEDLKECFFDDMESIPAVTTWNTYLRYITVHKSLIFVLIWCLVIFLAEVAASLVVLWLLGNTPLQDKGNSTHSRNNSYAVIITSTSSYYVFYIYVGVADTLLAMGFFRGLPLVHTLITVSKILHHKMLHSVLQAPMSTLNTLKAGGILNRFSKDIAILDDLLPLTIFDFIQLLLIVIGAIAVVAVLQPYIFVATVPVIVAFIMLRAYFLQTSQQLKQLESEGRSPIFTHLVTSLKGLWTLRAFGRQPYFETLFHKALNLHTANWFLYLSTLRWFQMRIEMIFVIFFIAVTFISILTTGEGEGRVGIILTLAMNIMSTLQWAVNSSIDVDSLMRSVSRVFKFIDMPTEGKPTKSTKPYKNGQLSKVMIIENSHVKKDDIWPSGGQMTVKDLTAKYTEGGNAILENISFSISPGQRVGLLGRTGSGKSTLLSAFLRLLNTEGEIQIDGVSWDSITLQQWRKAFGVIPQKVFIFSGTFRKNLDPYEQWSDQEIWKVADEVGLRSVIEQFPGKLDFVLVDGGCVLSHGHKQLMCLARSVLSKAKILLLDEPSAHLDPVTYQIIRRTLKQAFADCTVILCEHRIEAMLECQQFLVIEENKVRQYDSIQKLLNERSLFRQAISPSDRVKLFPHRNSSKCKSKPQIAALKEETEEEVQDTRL

Take `O=c1[nH]c2cc(C(F)(F)F)ccc2n1-c1cc(Cl)ccc1O` [NS004, 5-trifluoromethyl-1-(5-chloro-2-hydroxyphenyl)-1,3-dihydro-2H-benzimidazol-2-one]: the “whole cell inward and outward Cl- current” value in assay [1] (setting [14]) was “large to moderate increases; also recorded: significant increase in the Cl^- current”; in assay [9] (setting [14]), “large to moderate increases; also recorded: smaller direct increase in whole cell Cl^- current”. Further, the “whole cell Cl- current relative to cAMP alone” value in assay [1] (combination of cAMP stimulation and NS004, Vero cells) is on record as “only marginal increases in current; also recorded: only a small potentiation of cAMP-stimulated current”. The “response on 125I efflux” value in assay [2] is recorded as “no response”. The “increase in Cl- current” value in assay [3] was “never seen”. Further, the “channel response to drug application” value in assay [4] is “did not respond to drug application”. In addition, the “chloride current of the cAMP-stimulated channel” value in assay [5] (NS004 added to cAMP-stimulated wild-type CFTR, oocytes) is “only a marginal enhancement of chloride current; also recorded: only a small potentiation of cAMP-stimulated current”. The “reversibility of the increase in Cl- current” value in assay [5] (NS004 alone, Xenopus oocytes, wild-type CFTR) was “rapidly reversible; also recorded: reversibly open”. The Cl- current result in assay [5] (NS004 applied alone, unstimulated wild-type CFTR, Xenopus oocytes) is reported as “large increase in Cl^- current; also recorded: great efficacy; also recorded: significant increase in the Cl^- current”. For the same compound, the “potency (concentration range) for opening unstimulated wild-type CFTR” value in [5] (Xenopus oocytes) is “sub-micromolar to micromolar”. The “opening / open probability of single Cl- channels” value in assay [6] was “rapid and reversible direct increase in the opening of these channels; also recorded: potently and directly opened Cl^- channels; also recorded: greatly increased the open probability”; in assay [10] it was “potently and directly opened Cl^- channels; also recorded: greatly increased the open probability”. Further, the “125I efflux relative to control” value in assay [7] (NS004 20 μM alone, Vero cells expressing CFTR (FIG. 2)) is given as “increased relative to control”. For the same compound, the “125I-flux over control values” in assay [7] (NS004 alone, 0.1-20 micromolar concentration range, Vero cells, wild-type CFTR) is “increased modestly over control values; also recorded: only modest direct increases in ^125 I efflux”. Also, the total anion flux result in assay [7] (both cAMP and NS004, Vero cells, wild-type CFTR) was “did not significantly increase total anion flux”. For the same compound, the “time course of the increase in anion flux produced by cAMP” value in assay [8] (cAMP plus NS004, Vero cells, ΔF508 CFTR) was “reduced the slow time course”. Also, in [8] (co-administration of cAMP and NS004, ΔF508 CFTR, compared with cAMP in wild-type CFTR cells), the “levels of 125I efflux attained” value was “comparable to the efflux stimulated by cAMP in cells expressing wild-type CFTR”. Besides, the “amplitude of the increase in 125I efflux produced by cAMP” value in assay [8] (coapplication of cAMP (Forskolin, 5 μM in FIG. 2) and NS004, Vero cells, ΔF508 CFTR) is “greatly potentiated; also recorded: greatly enhanced the amplitude; also recorded: robust potentiation of ^125 I efflux”. The 125I-flux entry in assay [8] (direct application of NS004 alone, Vero cells, ΔF508 CFTR) is “only marginally effected; also recorded: only modest direct increases in ^125 I efflux”. The “maximal stimulation of Cl- current by cAMP” value in [9] (cAMP plus NS004, Vero cells) is listed as “potently potentiated the maximal stimulation of Cl^- current by cAMP; also recorded: profound potentiation of cAMP stimulation of Cl^- current”. The “response time to peak of cAMP-stimulated Cl- current” value in assay [9] (cAMP plus NS004, Vero cells) is “greatly enhanced the response time to peak”. For the same compound, the chloride current entry in [11] (NS004 applied alone, oocytes expressing ΔF508 CFTR) is recorded as “only a small enhancement of chloride current; also recorded: smaller direct increase in whole cell Cl^- current”. Besides, the “level of cAMP stimulation of channel activity (Cl- current)” value in assay [11] (NS004 simultaneously applied with cAMP and related agents, oocytes expressing ΔF508) is “greatly exacerbated the level of cAMP stimulation of channel activity; also recorded: profound potentiation of cAMP stimulation of Cl^- current”. Besides, in assay [11] (both cAMP and NS004 present, oocytes expressing ΔF508), the “time course of cAMP-stimulated chloride current increase” value is “greatly reduced (response time enhanced)”. The “effect on whole cell Cl- current” value in assay [12] is given as “no effects”.
For `C1CCN2C[C@@H]3C[C@@H](CN4CCCC[C@@H]34)[C@H]2C1` [sparteine, dodecahydro-7,14-methano-2H,6H-di-pyrido[1,2-a;1',2'-e][1,5]diazocine], the “effect on chloride channels” value in assay [13] (higher doses) is given as “blocking chloride channels”; in assay [13] (low doses) it was “activating chloride channels”.
